For data set [1], the system named is patients hospitalized for acute heart failure (AHF). The arrangement: species or system human. The conditions noted are these: in vivo. Here is the method:
(§1) The primary efficacy endpoint was the change from baseline to 24 h after the start of the infusion in the E/e ratio assessed by tissue Doppler echocardiography. Secondary endpoints included the change from baseline to 24 h of other echocardiography parameters: LVEF, left ventricular end-systolic and end-diastolic volumes, stroke volume index, E, A, E/A ratio, and S′: changes in dyspnoea by visual analogue scale (VAS) and in NT-proBNP from baseline to 24 h: proportion of patients with hospital readmissions or emergency visits for cardiovascular reasons by day 30; proportion of patients with episodes of in-hospital worsening heart failure to day 4, and length of stay. In-hospital worsening heart failure was defined by the need to increase the dose or reinitiate intravenous therapy with diuretics and/or other inotropic agents to day 4. Safety endpoints were assessed throughout the study and included: incidence of adverse events (AEs): change in vital signs and in 12-lead electrocardiographic (ECG) parameters: incidence of clinically or haemodynamically significant episodes of supraventricular or ventricular arrhythmias detected by continuous ECG monitoring: standard laboratory parameters: renal function: cardiac troponin T (cTnT): incidence of cTnT elevations, and mortality at day 30. […]

For data set [2], the system named is AHF patients with systolic blood pressure (SBP) of 90-150 mmHg. The following applies: 0.5, 1.0, and 1.5 μg/kg/min for 6 h; cited from earlier work.
In data set [3] the test system is dogs with chronic ischemic heart failure. The following applies: cited from earlier work.
For data set [4], the system named is patients hospitalized for acute heart failure (AHF). The conditions noted are these: 1.0 μg/kg/min group; Carubelli et al.; cited from earlier work.
Data set [5] shares this test system. Description: Self-reported dyspnoea by visual analogue scale (VAS). It counts as in vivo, human. Here is the method:
The primary efficacy endpoint was the change from baseline to 24 h after the start of the infusion in the E/e ratio assessed by tissue Doppler echocardiography. Secondary endpoints included the change from baseline to 24 h of other echocardiography parameters: LVEF, left ventricular end-systolic and end-diastolic volumes, stroke volume index, E, A, E/A ratio, and S′: changes in dyspnoea by visual analogue scale (VAS) and in NT-proBNP from baseline to 24 h: proportion of patients with hospital readmissions or emergency visits for cardiovascular reasons by day 30; proportion of patients with episodes of in-hospital worsening heart failure to day 4, and length of stay. In-hospital worsening heart failure was defined by the need to increase the dose or reinitiate intravenous therapy with diuretics and/or other inotropic agents to day 4. Safety endpoints were assessed throughout the study and included: incidence of adverse events (AEs): change in vital signs and in 12-lead electrocardiographic (ECG) parameters: incidence of clinically or haemodynamically significant episodes of supraventricular or ventricular arrhythmias detected by continuous ECG monitoring: standard laboratory parameters: renal function: cardiac troponin T (cTnT): incidence of cTnT elevations, and mortality at day 30. Elevations in cTnT were considered significant if they were >50% or >20% from baseline values, for patients with cTnT below or above the 99% upper reference limit at baseline, respectively.
The study design included a 24 h screening period, a 24 h study drug infusion phase (day 1), a post-treatment phase (days 2-4), and a follow-up visit at day 30 (FIG. 5). Patients could be enrolled at any time after admission. The use of oral medications was permitted during the study with the exception of digoxin. Intravenous diuretics were permitted during the treatment period at stable doses, unless changes were required due to clinically relevant variations of the patient's condition. If treatment with an inotrope was clinically necessary during the infusion period, the investigational product was discontinued. Echocardiography was performed according to international standards at screening, baseline (just before starting study drug infusion), 6, 24 h (just before infusion end), and 48 h after infusion start. Echocardiographic measurements at baseline, 6, 24, and 48 h were evaluated in a blinded fashion by a CoreLab located at the University and Civil Hospital of Brescia, Italy. E/e′ ratio was calculated as the ratio between the peak early diastolic mitral flow velocity (E wave) and the mean of the annular lateral (e′ lateral) and septal (e′ septal) velocities, according to standard guidelines.^20 Intraobserver and interobserver variability in E/e′ measurement was tested on the 15% of the recordings and is shown in FIG. 6. Self-reported dyspnoea was assessed using a 100 mm VAS, with zero representing the worst level of dyspnoea and […] the best breathing condition. Twenty-four hour ECG monitoring was performed using a three-lead device (Mortara industries, Milwaukee, WI, USA) during the day of screening, the infusion period, and the day after (the latter was optional). Analysis was conducted by a blinded CoreLab (ICS Maugeri, Italy). Serial measurements of NT-proBNP throughout the study were analyzed by a central laboratory (Elecsys® proBNP II, Roche®, Basel, Switzerland). Samples for cTnT were taken at baseline, 3, 6, 12, 24, 48, and 72 h and on day 30, and were analyzed by a core laboratory (Elecsys® high-sensitivity assay, Roche®, Basel, Switzerland). AEs were monitored throughout the duration of the study.
The study was designed as a mechanistic and safety study to assess the effects of a 24 h istaroxime infusion in patients hospitalized for AHF. […]

Data set [6] has the same test system. The arrangement: species or system human. The conditions noted are these: in vivo. Here is the method:
as §1, with “In-hospital worsening heart failure was defined by the need to increase the dose or reinitiate intravenous therapy with diuretics and/or other inotropic agents to day 4.” left out
The study design included a 24 h screening period, a 24 h study drug infusion phase (day 1), a post-treatment phase (days 2-4), and a follow-up visit at day 30 (FIG. 5). […] AEs were monitored throughout the duration of the study.
The source holds these as a separate data set.

Structures are written as SMILES. Counter-ions that a name gives are not always drawn.

On to `C[C@]12CCC(=NOCCN)C[C@@H]1C(=O)C[C@@H]1[C@@H]2CC[C@]2(C)C(=O)CC[C@@H]12` [Istaroxime, (E,Z)-3-((2-aminoethoxy)imino)androstane-6,17-dione hydrochloride], for which the “Renal function measured by eGFR” value in data set [1] is given as “generally increased”. In addition, the cardiac index entry in data set [2] is “increased only at the highest dose”. The “lusitropic effect assessed by increased mitral deceleration time” value in data set [2] was “occurred only at the highest dose”. In data set [3] (compared to dobutamine), the “myocardial relaxation (e′ diastolic velocity, tissue Doppler)” value is “improved myocardial relaxation”. The peak heart rate entry in data set [3] (compared with dobutamine) is recorded as “significantly lower”. Also, in data set [4], the “Serious adverse events, percent” value was 15%. Moreover, the “Dyspnoea VAS score, mean change from baseline” value was 4.113 in data set [5] (0.5 μg/Kg/min, 3 hours); 6.582 in data set [5] (0.5 μg/Kg/min, 6 hours); 6.772 in data set [5] (0.5 μg/Kg/min, 12 hours); 9.276 in data set [5] (0.5 μg/Kg/min, 24 hours); 10.948 in data set [5] (0.5 μg/Kg/min, 48 hours); 4.212 in data set [5] (1.0 μg/Kg/min, 3 hours). For the same compound, the “Dyspnoea VAS score, mean change from baseline” value in data set [5] (1.0 μg/Kg/min, 6 hours) was 8.637; in data set [5] (1.0 μg/Kg/min, 12 hours), 9.076; in data set [5] (1.0 μg/Kg/min, 24 hours), 13.332; in data set [5] (1.0 μg/Kg/min, 48 hours), 10.075. Besides, in data set [6], the “clinically significant arrhythmias, 24 h Holter monitoring” value was “no differences”.
